What was measured:
Format in all cases: in vivo
Summer wheat = assay: Container trials with cereals outdoors, post-emergence, Mefenpyr in tank mix; settings: 120 g of a.i./ha, without safener
Description: (§1) 1. Herbicidal Post-Emergence Action
(§2) Seeds of monocotyledonous and dicotyledonous weed and crop plants are placed in sandy loam in wood fibre pots or in plastic pots, covered with soil and cultivated in a greenhouse, during the vegetation period also outdoors outside of the greenhouse, under good growth conditions. 2-3 weeks after sowing, the test plants are treated at the one- to three-leaf stage. The test compounds, formulated as wettable powders (WP) or emulsifiable concentrates (EC) are, in various dosages with a water application rate of 300 l/ha (converted), with wetting agent (0.2 to 0.3%) added, sprayed onto the plants and the surface of the soil. 3-4 weeks after the treatment of the test plants, the effect of the preparations is rated visually in comparison to untreated controls (herbicidal effect in per cent (%): 100% effect=the plants have died, 0% effect=like control plants).
(§3) If it is additionally to be tested whether safeners can improve the plant compatibility of test substances in the case of crop plants, the following options are used for applying the safener: • seeds of the crop plants are, before sowing, dressed with the safener substance (the amount of safener is stated in per cent, based on the weight of the seed) • before the application of the test substances, the crop plants are sprayed with the safener at a certain application rate per hectar (usually 1 day before the application of the test substances) • the safener is applied together with the test substance as a tank mix (the amount of safener is stated in g/ha or as a ratio, based on the herbicide).
(§4) By comparing the effect of test substances on crop plants with or without safener treatment, it is possible to assess the effect of the safener substance.
(§5) Container Trials with Cereals Outdoors (Outside the Greenhouse/“Bird Cage”) Mefenpyr in Tank Mix

Summer barley [1] = assay: as above; settings: 120 g of a.i./ha, without safener
Description: as §1, §2, §3, §4, §5

Summer barley [2] = assay: Container trials with cereals in the greenhouse, post-emergence, Mefenpyr applied 1 day prior to herbicide; settings: 50 g of a.i./ha, without safener
Description: as §1
as §2, with “plants). […]” for “plants).”

Avena [3] = assay: Herbicidal post-emergence action, greenhouse; settings: 320 g a.i./ha, about 3 weeks
Description: (§6) 2. Herbicidal Post-Emergence Action
(§7) Seeds of monocotyledonous and dicotyledonous weed and crop plants are placed into sandy loam in wood fibre pots, covered with soil and cultivated in a greenhouse under good growth conditions. 2-3 weeks after sowing, the test plants are treated at the one-leaf stage. The test compounds, formulated as wettable powders (WP), are, in various dosages with a water application rate of 600 l/ha (converted), with 0.2% of wetting agent added, sprayed onto the green parts of the plants. After the test plants were kept in the greenhouse under optimum growth conditions for about 3 weeks, the effect of the preparations is rated visually in comparison to untreated controls (herbicidal effect in per cent (%): 100% effect=the plants have died, 0% effect=like control plants).

Agropyron [4] = assay: Herbicidal post-emergence action, greenhouse; settings: 320 g a.i./ha, about 3 weeks
Description: as §6, §7

Lolium [5] = assay: Herbicidal post-emergence action, greenhouse; settings: 320 g a.i./ha, about 3 weeks
Description: as §6, §7

Setaria [6] = assay: Herbicidal post-emergence action, greenhouse; settings: 320 g a.i./ha, about 3 weeks
Description: as §6, §7

Sugar-beets [7] = assay: Herbicidal post-emergence action, greenhouse; settings: 320 g a.i./ha, about 3 weeks
Description: as §6, §7

Alopecurus [8] = assay: Herbicidal post-emergence action, greenhouse; settings: 320 g a.i./ha, about 3 weeks
Description: as §6, §7

Meloidogyne incognita = assay: Meloidogyne Test (nematicidal action, gall formation on lettuce roots); settings: 20 ppm active compound; 100% = no galls
Description: To produce a suitable preparation of active compound, 1 part by weight of active compound is mixed with the stated amounts of solvent and emulsifier, and the concentrate is diluted with water to the desired concentration.
Vessels are filled with sand, solution of active compound, Meloidogyne incognita egg/larvae suspension and lettuce seeds. The lettuce seeds germinate and the plants develop. On the roots, the galls develop.
After the desired period of time, the nematicidal action is determined in % by the formation of galls. 100% means that no galls have been found; 0% means that the number of galls on the treated plants corresponds to that of the untreated control.

[9] = system: green peach aphid (Myzus persicae); assay: Myzus Test (spray treatment); settings: 100 g/ha, Chinese cabbage discs
Description: (§8) To produce a suitable preparation of active compound, 1 part by weight of active compound is mixed with the stated amounts of solvents and emulsifier, and the concentrate is diluted with emulsifier-containing water to the desired concentration.
Discs of Chinese cabbage (Brassica pekinensis) which are infested by all stages of the green peach aphid (Myzus persicae) are sprayed with a preparation of active compound of the desired concentration.
After the desired period of time, the activity in % is determined. 100% means that all aphids have been killed; 0% means that none of the aphids have been killed.

[10] = system: larvae of the mustard beetle (Phaedon cochleariae); assay: Phaedon Test (spray treatment); settings: 100 g/ha, Chinese cabbage discs
Description: [[[…]]] To produce a suitable preparation of active compound, 1 part by weight of active compound is mixed with the stated amounts of solvents and emulsifier, and the concentrate is diluted with emulsifier-containing water to the desired concentration. Discs of Chinese cabbage (Brassica pekinensis) are sprayed with a preparation of active compound of the desired concentration and, after they have dried, populated with larvae of the mustard beetle (Phaedon cochleariae).

Avena [11] = assay: Herbicidal pre-emergence action, greenhouse; settings: 320 g a.i./ha, 3 weeks
Excerpt: (§9) 1. Herbicidal Pre-Emergence Action
(§10) Seeds of monocotyledonous and dicotyledonous weed and crop plants are placed into sandy loam in wood fibre pots and covered with soil. The test compounds, formulated in the form of wettable powders (WP), are then, in various dosages as aqueous suspension with a water application rate of 600 l/ha (converted), with 0.2% of wetting agent added, applied to the surface of the covering soil.
(§11) After the treatment, the pots are placed in a greenhouse and kept under good growth conditions for the test plants. The visual assessment of the emergence damage on the test plants is carried out after a trial period of 3 weeks by comparison with untreated plants (herbicidal effect in per cent (%): 100% effect=the plants have died, 0% effect=like control plants).

Agropyron [12] = assay: Herbicidal pre-emergence action, greenhouse; settings: 320 g a.i./ha, 3 weeks
Excerpt: as §9, §10, §11

Lolium [13] = assay: Herbicidal pre-emergence action, greenhouse; settings: 320 g a.i./ha, 3 weeks
Excerpt: as §9, §10, §11

Setaria [14] = assay: Herbicidal pre-emergence action, greenhouse; settings: 320 g a.i./ha, 3 weeks
Excerpt: as §9, §10, §11

Sugar-beets [15] = assay: Herbicidal pre-emergence action, greenhouse; settings: 320 g a.i./ha, 3 weeks
Excerpt: as §9, §10, §11

Alopecurus [16] = assay: Herbicidal pre-emergence action, greenhouse; settings: 320 g a.i./ha, 3 weeks
Excerpt: as §9, §10, §11

[17] = system: greenhouse red spider mite (Tetranychus urticae); assay: Tetranychus Test (OP-resistant/spray treatment); settings: 100 g/ha; bean leaf discs, spray, OP-resistant
Description: as §8
Discs of bean leaves (Phaseolus vulgaris) which are infested by all stages of the greenhouse red spider mite (Tetranychus urticae) are sprayed with a preparation of active compound of the desired concentration.
After the desired period of time, the activity in % is determined. 100% means that all spider mites have been killed; 0% means that none of the spider mites have been killed.

Row | Structure (SMILES) | Summer wheat observed (%) (Summer wheat) | Summer barley observed (%) (Summer barley [1]) | Summer barley observed (%) (Summer barley [2]) | herbicidal effect, Avena (Avena [3]) | herbicidal effect, Agropyron (Agropyron [4]) | herbicidal effect, Lolium (Lolium [5]) | herbicidal effect, Setaria (Setaria [6]) | herbicidal effect, Sugar-beets (Sugar-beets [7]) | herbicidal effect, Alopecurus (Alopecurus [8]) | Effect in % after 14d (Meloidogyne incognita) | Kill rate in % after 5d [9] | Kill rate in % after 7d [10] | herbicidal effect, Avena (Avena [11]) | herbicidal effect, Agropyron (Agropyron [12]) | herbicidal effect, Lolium (Lolium [13]) | herbicidal effect, Setaria (Setaria [14]) | herbicidal effect, Sugar-beets (Sugar-beets [15]) | herbicidal effect, Alopecurus (Alopecurus [16]) | Kill rate in % after 5d [17]
1 | CCc1cc(Br)cc(C)c1C1=C(O)[C@]2(CC[C@H](OC)CC2)NC1=O [Ex. I-a-1] | 30% | 35% |  |  |  |  |  |  |  |  |  |  |  |  |  |  |  |  | 
2 | CCc1cc(Br)cc(CC)c1C1=C(OC(=O)COC)[C@]2(CC[C@H](OC)CC2)NC1=O [Ex. I-b-1] |  |  | 50% |  |  |  |  |  |  |  |  |  |  |  |  |  |  |  | 
3 | CCOC(=O)OC1=C(c2c(C)cc(Br)cc2CC)C(=O)N[C@]12CC[C@@H](OC)CC2 [Ex. I-c-1] | 20% | 35% |  | 100% | 100% | 100% | 100% | 0% | 100% | 90% | 90% | 83% | 97% | 100% | 100% | 100% | 0% | 100% | 70%

— patent US20070244007A1, “Cis-Alkoxyspiro-Substituted Tetramic Acid Derivatives” (BAYER CROPSCIENCE AG, priority 2004, published 2007)
